Reference: article PMC4387272, “Pharmacokinetic, pharmacodynamic and biomarker evaluation of transforming growth factor-β receptor I kinase inhibitor, galunisertib, in phase 1 study in patients with advanced cancer” (Investigational new drugs, 2014)
Like-named read-outs stand apart in the source and are kept apart here.

Columns and labels:
[1] = test system: pSMAD2 in peripheral blood mononuclear cells (PBMCs); assay: pSMAD2 ELISA in peripheral blood mononuclear cells of treated patients; assay type: in vivo, Human; conditions: for inhibition at 160 mg: Homo sapiens, PBMC, 160 mg/day cohort (Part A)
Description: pSMAD2 in peripheral blood mononuclear cells (PBMCs) were assessed by a specific ELISA as previously described, in which a rabbit polyclonal antibody recognizing pSMAD2 was used. Total SMAD2 was also assessed and used to normalize the expression of pSMAD2.
A power model was fitted to PK parameter estimates Cmax and AUC(0–24) to assess the extent of dose proportionality. Clinical benefit in this study has been defined as a patient with either a complete response (CR), partial response (PR), and stable disease (SD) ≥6 cycles. MAIP results from plasma samples taken at baseline were compared between patients completing >6 cycles and ≤6 cycles using ANOVA. The analysis included controlling the false discovery rate to 30 % using the Benjamini-Hochberg method. Boxplots showing the distributions at baseline of the potentially prognostic markers are provided. Observed TGF-β-stimulated pSMAD2 (pSMAD2^+) in PBMCs was normalized by TGF-β-stimulated tSMAD2 [(tSMAD2^+) ^0.6[9, 10]] prior to determining the minimum normalized pSMAD2^+ and calculating percentage inhibition post-baseline for each patient. Baseline and minimum post-baseline values for each patient together with maximum percentage inhibition are presented on a line and scatter plot for each patient in Cohort 3 and summary statistics by time point provided from a standard mixed effects regression model, fitting log normalized pSMAD2^+ to the fixed effects of log baseline normalized pSMAD2^+, nominal time point, dose and their interaction and patient as a random effect.
Using an ELISA to detect changes of pSMAD2 in isolated PBMCs as a PD response marker, we observed changes after galunisertib administration. […] In 11 of the 14 patients, pSMAD2 inhibition was assessed at the observed maximum concentration for galunisertib about 2–6 h after administration on Day 14 of the first cycle. In 6 of the 11 patients, pSMAD2 levels were reduced in relationship to drug concentration, while in the remaining 5 patients, there was no relationship at the expected Cmax (Fig. 2a). […] Once the drug was stopped after 14 days of administration, pSMAD2 changes were assessed for the next 3 days in 2 patients, one in Cohort 1 and 1 in Cohort 3 (Fig. 2c and d). The pSMAD2 inhibition was still present although drug levels were low or undetectable. The mean of the observed percentage inhibition of normalized pSMAD2^+ from Cycle 1 Day 1 and Day 12 for Cohort 3 together with the estimated means from the model are provided in Table 2.

[2] = test system: T cell subsets (CD3+, CD8+, CD4+, CD4+CD25+CD127-/LOFoxp3+); assay: Flow cytometry for T cell subsets; assay type: in vivo, Human
Source text: Blood samples were obtained and prepared for flow cytometry assessment following the instructions of Quintiles Laboratories (Durham, NC). After red blood cell lysis, cells were stained for CD3^+, CD8^+, CD4^+ and CD4^+CD25^+ CD127^−/LOFoxp3^+ and events were collected by flow cytometer per standard Quintiles procedures. All results were reported as absolute cell counts and as percentage of lymphocytes.
An amendment was introduced to assess T cell subsets in Part B and Part C.

Cc1cccc(-c2nn3c(c2-c2ccnc4ccc(C(N)=O)cc24)CCC3)n1 [galunisertib]
patients with a reduction in pSMAD2 in PBMCs ([1]; Cohort 3 (160 mg/day), 9 of 14 patients, first 14 days of treatment): 64%
mean percentage inhibition of pSMAD2 ([1]; Cohort 3, end of 14 days of treatment, PBMCs): approximately 40%
patients with pSMAD2 levels reduced in relationship to drug concentration ([1]; Cohort 3, of 11 patients assessed about 2–6 h after administration on Day 14 of first cycle): 6 patients
inhibition at 160 mg ([1]; Day 1, 0.5 h, PBMCs, mixed-effects model, read-out: Fitted Percentage Inhibition of Normalized pSMAD2): 27%
inhibition at 160 mg ([1]; Day 1, 0.5 h, PBMCs, read-out: Observed Percentage Inhibition of Normalized pSMAD2): 26%
inhibition at 160 mg ([1]; Day 1, 4 h, PBMCs, mixed-effects model, read-out: Fitted Percentage Inhibition of Normalized pSMAD2): 5%
inhibition at 160 mg ([1]; Day 1, 4 h, PBMCs, read-out: Observed Percentage Inhibition of Normalized pSMAD2): 5%
inhibition at 160 mg ([1]; Day 1, 6 h, PBMCs, mixed-effects model, read-out: Fitted Percentage Inhibition of Normalized pSMAD2): -10%
inhibition at 160 mg ([1]; Day 1, 6 h, PBMCs, read-out: Observed Percentage Inhibition of Normalized pSMAD2): -10%
inhibition at 160 mg ([1]; Day 12 or 15 post dose (2, 3, 4, 6 h), PBMCs, mixed-effects model, read-out: Fitted Percentage Inhibition of Normalized pSMAD2): 34%
inhibition at 160 mg ([1]; Day 12 or 15 post dose (2, 3, 4, 6 h), PBMCs, read-out: Observed Percentage Inhibition of Normalized pSMAD2): 39%
pSMAD2 inhibition after drug was stopped ([1]; next 3 days after 14 days of administration, 2 patients, drug levels low or undetectable): still present
lymphocyte counts and the respective subsets ([2]; Part B, in combination with lomustine): reduced
counts of CD3+, CD8+, CD4+ and CD4+CD25+CD127−/LOFoxp3+ cells ([2]; Part C, monotherapy): either stabilized or increased
